Values quoted from earlier work as cited in US6977253B2, “Methods for the treatment of bipolar disorder using carbamazepine” (Shire Pharmaceutical Development Inc., priority 2003, dated 2005).

Tested on: acute mania
Conditions: controlled carbamazepine monotherapy trials in acute mania; McElroy and Keck 2000

NC(=O)N1c2ccccc2C=Cc2ccccc21 [carbamazepine, 5-carbamoyl-5H-dibenz(b,f)azepine]
Pooled response rate: 52%
